US10472395B2, “Cyclic peptide analogs and conjugates thereof” (Sirenas LLC, priority 2015, dated 2019)
Where two headings read alike, the source gives them in different places. Numbered stars: 1 amine (or outer) side, 2 acyl side, 3 side chain; on linkers, the order of the positions; unused ones are H or OH. Bridge positions count the residues as written; N and C are the ends. Square brackets hold non-standard residues; d marks the D form. Peptide text beside a SMILES is read from it. ξ: configuration not given here. X4 = C/C=C(\C)[C@@H](N[*:1])[C@@H](C)[C@H](O)C/C=C(\C)C(=O)O[C@H](CC(C)C)C(=O)[*:2]; X3 = C/C=C(\C)[C@@H](O[*:2])[C@@H](C)[C@@H](O)C/C=C(\C)C(=O)[*:1]; X10 = C/C(=C\CCCCO[*:2])C(=O)[*:1]; X11 = C/C(=C\CCO[*:2])C(=O)[*:1]; X9 = C/C(=C\CCCO[*:2])C(=O)[*:1]; dNMeF = CN[C@H](Cc1ccccc1)C(=O)O; Ile(3ξ) = CCC(C)[C@H](N)C(=O)O; dHica = CC(C)C[C@@H](O)C(=O)O; dHiv = CC(C)[C@@H](O)C(=O)O; NMeA = CN[C@@H](C)C(=O)O; dAbu = CC[C@@H](N)C(=O)O; dNMeA = CN[C@H](C)C(=O)O; Abu = CC[C@H](N)C(=O)O; Aib = CC(C)(N)C(=O)O; Sar = CNCC(=O)O

What was measured:
[1] = tested on: BT-474 human mammary gland ductal carcinoma cells; test: Inhibitory response of test compounds against BT-474 cells (Cell Titer-Glo, 72 h); type: cell-based
Procedure: (§1) BT-474 human mammary gland ductal carcinoma cells were seeded in a clear polystyrene 96-well microculture plate (Corning® Costar® 96-well flat bottom plate, Cat.#3997) in a total volume of 90 μL/well. After 24 hours of incubation in a humidified incubator at 37° C. with 5% CO2 and 95% air, 10 μL of 10×, serially diluted test agents in growth medium were added to each well (10 pt dose response curve, highest concentration 10 μM of test agent). After 72 hours of culture in a humidified incubator at 37° C., in an atmosphere of 5% CO2 and 95% air, the plated cells and Cell Titer-Glo® (Promega G7571) reagents were brought to room temperature to equilibrate for 30 minutes. 100 μL of Cell Titer-Glo® reagent was added to each well. The plate was shaken for two minutes and then left to equilibrate for ten minutes. The media/Cell Titer-Glo® reagent was transferred to a white polystyrene 96-well microculture plate (Corning® Costar® 96-well flat bottom plate, Cat.#3917) before reading luminescence on a Tecan GENios microplate reader.
(§2) Percent inhibition of cell growth was calculated relative to untreated control wells. The IC50 value for the test agents was determined using Prism 6.05 by curve-fitting of the data using the following four parameter-logistic equation:
(§3) [formula] where Top is the maximal % of control absorbance, Bottom is the minimal % of control absorbance at the highest agent concentration, Y is the % of control absorbance, X is the agent concentration, IC50 is the concentration of agent that inhibits cell growth by 50% compared to the control cells, and n is the slope of the curve.

HCC1954 cells = test: Inhibitory response of test compounds against HCC1954 cells (method analogous to BT-474); type: cell-based; details: Homo sapiens
Procedure: as §1, §2, §3
Inhibitory response of test compounds against HCC1954 cells was determined using a method analogous to that used for BT-474 cells.

Compound	IC50 ([1]; Homo sapiens) [nM]	other results
CCC(C)[C@@H]1NC(=O)CN(C)C(=O)[C@@H](Cc2ccccc2)N(C)C(=O)[C@H](C)NC(=O)[C@@H](CC(C)C)OC(=O)/C(C)=C/CCCOC(=O)[C@H](C)NC1=O (stereo partly shown) [Compound 4] ([dHica]A[dNMeF][Sar][Ile(3ξ)]A; linker N-C via X9)	> 10000	–
CCC(C)[C@@H]1NC(=O)CN(C)C(=O)[C@@H](Cc2ccccc2)N(C)C(=O)[C@H](C)NC(=O)[C@@H](CC(C)C)OC(=O)/C(C)=C/CCCOC(=O)[C@@H](C)NC1=O (stereo partly shown) [Compound 5] ([dHica]A[dNMeF][Sar][Ile(3ξ)][dA]; linker N-C via X9)	> 10000	–
CCC(C)[C@@H]1NC(=O)CN(C)C(=O)[C@@H](Cc2ccccc2)N(C)C(=O)[C@H](C)NC(=O)[C@@H](CC(C)C)OC(=O)/C(C)=C/CCCOC(=O)[C@H](C)N(C)C1=O (stereo partly shown) [Compound 9] ([dHica]A[dNMeF][Sar][Ile(3ξ)][NMeA]; linker N-C via X9)	> 10000	–
CCC(C)[C@@H]1NC(=O)CN(C)C(=O)[C@@H](Cc2ccccc2)N(C)C(=O)[C@H](C)NC(=O)[C@@H](CC(C)C)OC(=O)/C(C)=C/CCCOC(=O)[C@@H](C)N(C)C1=O (stereo partly shown) [Compound 10] ([dHica]A[dNMeF][Sar][Ile(3ξ)][dNMeA]; linker N-C via X9)	> 10000	–
CCC(C)[C@@H]1NC(=O)CN(C)C(=O)[C@@H](Cc2ccccc2)N(C)C(=O)[C@H](C)NC(=O)[C@@H](CC(C)C)OC(=O)/C(C)=C/CCCOC(=O)[C@H](CCCCNC(=O)OC(C)(C)C)NC1=O (stereo partly shown) [Compound 11]	> 10000	–
CCC(C)[C@@H]1NC(=O)CN(C)C(=O)[C@@H](Cc2ccccc2)N(C)C(=O)[C@H](C)NC(=O)[C@@H](CC(C)C)OC(=O)/C(C)=C/CCOC(=O)[C@@H](C)NC1=O (stereo partly shown) [Compound 12] ([dHica]A[dNMeF][Sar][Ile(3ξ)][dA]; linker N-C via X11)	> 10000	–
CCC(C)[C@@H]1NC(=O)CN(C)C(=O)[C@@H](Cc2ccccc2)N(C)C(=O)[C@H](C)NC(=O)[C@@H](CC(C)C)OC(=O)/C(C)=C/CCCCOC(=O)[C@@H](C)NC1=O (stereo partly shown) [Compound 13] ([dHica]A[dNMeF][Sar][Ile(3ξ)][dA]; linker N-C via X10)	> 10000	–
CCC(C)[C@@H]1NC(=O)CN(C)C(=O)[C@@H](Cc2ccccc2)N(C)C(=O)[C@H](C)NC(=O)[C@@H](CC(C)C)OC(=O)/C(C)=C/CCCCOC(=O)[C@@H](C)N(C)C1=O (stereo partly shown) [Compound 14] ([dHica]A[dNMeF][Sar][Ile(3ξ)][dNMeA]; linker N-C via X10)	> 10000	–
CCC(C)[C@@H]1NC(=O)CN(C)C(=O)[C@@H](Cc2ccccc2)N(C)C(=O)[C@H](C)NC(=O)[C@@H](CC(C)C)OC(=O)/C(C)=C/CCCCOC(=O)[C@H](C)NC1=O (stereo partly shown) [Compound 17] ([dHica]A[dNMeF][Sar][Ile(3ξ)]A; linker N-C via X10)	200 to 10000	–
C/C=C(\C)[C@H]1NC(=O)[C@@H](C)NC(=O)[C@H](C(C)CC)NC(=O)CN(C)C(=O)[C@@H](Cc2ccccc2)N(C)C(=O)[C@H](C)NC(=O)[C@@H](CC(C)C)OC(=O)/C(C)=C/C[C@@H](O)[C@@H]1C (stereo partly shown) [Compound 19] (cyclo(A[dNMeF][Sar][Ile(3ξ)][dA][X4]))	> 10000	IC50 ([1]; Homo sapiens, 72 h, Cell Titer-Glo, highest concentration 10 μM): > 10000 nM
C/C=C(\C)[C@H]1OC(=O)[C@@H](C)NC(=O)[C@H](C(C)CC)NC(=O)CN(C)C(=O)[C@@H](Cc2ccccc2)N(C)C(=O)[C@H](C)NC(=O)[C@@H](CC(C)C)OC(=O)/C(C)=C/C[C@H](O)[C@H]1C (stereo partly shown) [Compound 20]	200 to 10000	IC50 ([1]; Homo sapiens, 72 h, Cell Titer-Glo): 389 nM
C/C=C(\C)[C@H]1OC(=O)[C@@H](C)NC(=O)[C@H](C(C)CC)NC(=O)CN(C)C(=O)[C@@H](Cc2ccc(Cl)cc2)N(C)C(=O)[C@H](C)NC(=O)[C@@H](CC(C)C)OC(=O)/C(C)=C/C[C@H](O)[C@@H]1C (stereo partly shown) [Compound 21]	< 20	IC50 (HCC1954 cells): < 20 nM
CCC(C)[C@@H]1NC(=O)CN(C)C(=O)[C@@H](Cc2ccccc2)N(C)C(=O)[C@H](C)NC(=O)[C@@H](CC(C)C)OC(=O)/C(C)=C/CCCOC(=O)[C@H](CCCCN)NC1=O (stereo partly shown) [Compound 60] ([dHica]A[dNMeF][Sar][Ile(3ξ)]K; linker N-C via X9)	> 10000	–
C/C=C(\C)[C@H]1OC(=O)[C@@H](C)NC(=O)[C@H]([C@H](C)CC)NC(=O)CN(C)C(=O)[C@@H](Cc2ccc(Cl)cc2)N(C)C(=O)[C@H](C)NC(=O)[C@@H](CC(C)C)OC(=O)/C(C)=C/C[C@H](OCSC)[C@@H]1C [Compound 61]	< 20	–
C/C=C(\C)[C@H]1OC(=O)[C@@H](C)NC(=O)[C@H](C(C)CC)NC(=O)CN(C)C(=O)[C@@H](Cc2ccccc2)N(C)C(=O)[C@H](C)NC(=O)[C@@H](CC(C)C)NC(=O)/C(C)=C/C[C@H](O)[C@@H]1C (stereo partly drawn) [Compound 63] ([dL]A[dNMeF][Sar][Ile(3ξ)][dA]; linker N-C via X3)	< 20	IC50 (HCC1954 cells): 20 to 200 nM
C/C=C(\C)[C@H]1OC(=O)[C@@H](C)NC(=O)[C@H](C(C)CC)NC(=O)CN(C)C(=O)[C@@H](Cc2ccccc2)N(C)C(=O)[C@H](C)NC(=O)[C@@H](Cc2ccccc2)NC(=O)/C(C)=C/C[C@H](O)[C@@H]1C (stereo partly shown) [Compound 64] ([dF]A[dNMeF][Sar][Ile(3ξ)][dA]; linker N-C via X3)	< 20	IC50 (HCC1954 cells): 20 to 200 nM
C/C=C(\C)[C@H]1OC(=O)[C@@H](C)NC(=O)[C@H](C(C)CC)NC(=O)CN(C)C(=O)[C@@H](Cc2ccccc2)N(C)C(=O)[C@H](C)NC(=O)[C@@H](CC(C)C)OC(=O)/C(C)=C/C=C/[C@@H]1C (stereo partly shown) [Compound 69]	< 20	IC50 (HCC1954 cells): < 20 nM
C/C=C(\C)[C@H]1OC(=O)[C@@H](C)NC(=O)[C@H]([C@H](C)CC)NC(=O)CN(C)C(=O)[C@@H](Cc2ccccc2)N(C)C(=O)[C@H](C)NC(=O)[C@@H](CC(C)C)OC(=O)/C(C)=C/C[C@H](OC(=O)N(C)CCNC)[C@@H]1C [Compound 75]	< 20	IC50 (HCC1954 cells): < 20 nM
CCC(C)[C@@H]1NC(=O)CN(C)C(=O)[C@@H](Cc2ccccc2)N(C)C(=O)[C@H](C)NC(=O)[C@@H](CC(C)C)OC(=O)/C(C)=C/CCCCOC(=O)[C@@H](CC)NC1=O (stereo partly shown) [Compound 77] ([dHica]A[dNMeF][Sar][Ile(3ξ)][dAbu]; linker N-C via X10)	> 10000	–
CCC(C)[C@@H]1NC(=O)CN(C)C(=O)[C@@H](Cc2ccccc2)N(C)C(=O)[C@H](C)NC(=O)[C@@H](CC(C)C)OC(=O)/C(C)=C/CCCCOC(=O)[C@H](CC)NC1=O (stereo partly shown) [Compound 78] ([dHica]A[dNMeF][Sar][Ile(3ξ)][Abu]; linker N-C via X10)	200 to 10000	–
CCC(C)[C@@H]1NC(=O)CN(C)C(=O)[C@@H](Cc2ccccc2)N(C)C(=O)[C@H](C)NC(=O)[C@@H](CC(C)C)OC(=O)/C(C)=C/CCCCOC(=O)CNC1=O (stereo partly shown) [Compound 79] ([dHica]A[dNMeF][Sar][Ile(3ξ)]G; linker N-C via X10)	> 10000	–
CCC(C)[C@@H]1NC(=O)CN(C)C(=O)[C@@H](Cc2ccccc2)N(C)C(=O)[C@H](C)NC(=O)[C@@H](C(C)C)OC(=O)/C(C)=C/CCCCOC(=O)[C@@H](CC)NC1=O (stereo partly shown) [Compound 80] ([dHiv]A[dNMeF][Sar][Ile(3ξ)][dAbu]; linker N-C via X10)	> 10000	–
CCC(C)[C@@H]1NC(=O)CN(C)C(=O)[C@@H](Cc2ccccc2)N(C)C(=O)[C@H](C)NC(=O)[C@@H](C(C)C)OC(=O)/C(C)=C/CCCCOC(=O)C(C)(C)NC1=O (stereo partly shown) [Compound 81] ([dHiv]A[dNMeF][Sar][Ile(3ξ)][Aib]; linker N-C via X10)	200 to 10000	–
C/C=C(\C)[C@H]1OC(=O)[C@@H](CCCCNC(=O)OC(C)(C)C)NC(=O)[C@H]([C@H](C)CC)NC(=O)CN(C)C(=O)[C@@H](Cc2ccccc2)N(C)C(=O)[C@H](C)NC(=O)[C@@H](CC(C)C)OC(=O)/C(C)=C/C[C@H](CCSC)[C@@H]1C [Compound 82]	< 20	IC50 (HCC1954 cells): 20 to 200 nM
C/C=C(\C)[C@H]1OC(=O)[C@@H](C)NC(=O)[C@H]([C@H](C)CC)NC(=O)CN(C)C(=O)[C@@H](Cc2ccc(Cl)cc2)N(C)C(=O)[C@H](CCCCNC(=O)c2ccc(C(C)=O)cc2)NC(=O)[C@@H](CC(C)C)OC(=O)/C(C)=C/CC[C@@H]1C [Compound 121]	200 to 10000	–
C/C=C(\C)[C@H]1OC(=O)[C@@H](C)NC(=O)[C@H]([C@H](C)CC)NC(=O)CN(C)C(=O)[C@@H](Cc2ccccc2)N(C)C(=O)[C@H](C)NC(=O)[C@@H](CC(C)C)OC(=O)/C(C)=C/C[C@H](OC(=O)NCCCOCCOCCOCCCNC(=O)c2ccc(/C(C)=N\NC(=O)CCCCCN3C(=O)C=CC3=O)cc2)[C@@H]1C [Compound L13]	–	IC50 [1]: 20 to 200 nM
